Measurements reported in patent publication US6384007B1, “Method and composition for enhancing the activity of an enzyme” (Unilever Home & Personal USA division of Conopco, Inc., priority 1999, dated 2002).

How the values were obtained:
[1] = Bleaching of tomato stains on cotton swatches (Example 1); settings: detergent wash solution 2 g/l, 1 hour at 30° C
Protocol: The potential of the enhancer, Ethanedioic acid, 2-[(4-aminophenyl)sulfonyl)hydrazide-2-phenylhydrazide, to boost the bleach performance of phenol oxidizing enzyme was assessed by washing cotton swatches soiled with tomato stains
Purified phenol oxidizing enzyme from Acremonium murorum was added to the wash solution at 100 mg/l. The enzyme from Acremonium murorum is described in WO-A-00/05349 (Unilever). The enhancer was dosed at 250 μM. The following formulation was used as wash solution (2 g/l): […]
The swatches were washed during 1 hour at 30° C. After the wash, the swatches were tumble-dried and the reflectance spectra were measured using a Minolta spectrometer. The color differences between the swatch before and after the wash data were expressed in the CIELAB L*a*b* color space. In this color space, L* indicates lightness and a* and b* are the chromaticity coordinates. Color differences between two swatches are expressed as ΔE, which is calculated from the following equation:
ΔE={square root over (ΔL^2+Δa^2+Δb^2+L )}
Table 1: Stain bleach performance of the phenol oxidizing enzyme/enhancer system on tomato stains in the presence of different enhancers.

[2] = Bleaching of tomato stains on cotton swatches (Example 2); settings: enhancer 250 μM + enzyme 20 mg/l; detergent formulation pH 9; 30 minutes at 30 C
Protocol: Stain bleach experiments were performed as in Example 1, except that 20 mg/l enzymes was used. The detergent formulation was set at pH 9, and the swatches washed during 30 minutes at 30 C.
Table 2: Stain bleach performance of the phenol oxidizing enzyme/enhancer system on tomato stains in the presence of the enzymatic bleach system.

ΔE (CIELAB colour difference of swatch before and after wash), wash with enzyme and enhancer added ([1]; enhancer 250 μM + phenol oxidizing enzyme from Acremonium murorum 100 mg/l): ΔE = 11.9 | ΔE (CIELAB colour difference of swatch before and after wash), wash with enzyme and enhancer added [2]: ΔE = 10.6
Structure (SMILES): Nc1ccc(S(=O)(=O)NNC(=O)C(=O)NNc2ccccc2)cc1 [enhancer, Ethanedioic acid, 2-[(4-aminophenyl)sulfonyl)hydrazide-2-phenylhydrazide]
ΔE (CIELAB colour difference of swatch before and after wash), wash with enhancer only ([1]; enhancer 250 μM, no enzyme): ΔE = 9.1
